Reference: patent US20160222131A1, “ATRX AS A COMPANION DIAGNOSTIC FOR CDK4 INHIBITORS” (Memorial Sloan-Kettering Cancer Center, priority 2013, published 2016)
Non-standard residues stand in square brackets, D forms with d. No end group written: not given here. Arg(Me2s) = CN=C(NC)NCCC[C@H](N)C(=O)O; pS = N[C@@H](COP(=O)(O)O)C(=O)O

Legend:
[1] = tested on: responder cell line LS8817; assay: ATRX foci by immunofluorescence in responder cells treated with PD0332991; assay type: cell-based
Description: (§1) Cells were washed twice with PBS and fixed with 4% paraformaldehyde at room temperature for 20 minutes. Cells were again washed twice with PBS and treated with 0.1% triton X-100 in PBS for five minutes. Cells were again washed twice with PBS and blocked in 5% BSA in PBS for 30 minutes at room temperature. Cells were incubated with anti-ATRX antibody, obtained from Bethyl, Cat No. A301-045A, diluted at 1:2000 in PBS (stock is provided at 1 mg/ml) overnight at 4 degrees Celsius. The following day, cells were washed twice with PBS and incubated with Alexa Fluor-488 anti-rabbit secondary diluted at 1:500 in PBS (stock was provided at 2 mg/ml) for one hour at room temperature. Cells were washed twice with PBS and incubated with 0.1 ug/ml […] for 5 minutes at room temperature. Cells were washed three times with PBS and slides were mounted in Vectashield fluorescence mounting media. Slides were imaged using a Zeiss Axioplan 2 Upright Microscope. […] Immunofluorescence analysis using the Bethyl antibody was performed to determine if ATRX was recruited to foci. Immunofluorescence was performed as described in Example 1. In the responder cell line LS8817, further analysis was performed to determine the average number of foci present in responder cells undergoing senescence in response treatment with PD0332991. […] The distribution of the number of ATRX foci shifted to the right in responder cells treated with PD0332991 as compared to responder cells that were not treated. […] As shown in FIG. 16A-C, the increase in the number of ATRX foci in response to PD0332991 treatment in responder cells can be observed as early as day 2 subsequent to PD0332991 treatment.

[2] = tested on: non-responder cell line LS8107; assay: ATRX foci by immunofluorescence in non-responder cells treated with PD0332991; assay type: cell-based
Description: as §1, with “treatment. To determine whether ATRX foci can be used as a marker for indicating if non-responders underwent senescence in response to treatment with second drug in combination with a CDK inhibitor, non-responder cells, e.g., LS8107, was treated with PD0332991 followed by treatment with shRNA directed to MDM2 2 days post-PD0332991 treatment (FIG. 17).” for “treatment.”

[3] = tested on: responder cell line LS8817; assay: Senescence-associated β-galactosidase after PD0332991 in ATRX knockdown cells; assay type: cell-based; details: LS8817 infected with shRNA directed to ATRX vs shSCR, PD0332991 for seven days, FIG. 3
Description: To determine if ATRX plays a role in the senescence pathway induced by treatment with a CDK4 inhibitor, the expression of ATRX was genetically manipulated in the responder cell line, LS8817. Knockdown of ATRX (FIG. 2) was performed in LS8817 cells that were treated with PD0332991. The presence of ATRX in scrambled control shRNA (shSCR)-treated cells and the ATRX shRNA-treated cells was detected by the Bethyl antibody. The accumulation of […] associated β-galactosidase (SA-β-gal) shSCR-treated cells and the ATRX shRNA-treated cells was measured (FIG. 3). […] To determine if ATRX was also downstream of MDM2 loss, we subsequently infected the ATRX deficient cells with lentiviruses expressing shRNAs that targeted MDM2. In the responder cell line, LS8817, accumulation of SA-β-gal was still compromised even though the level of MDM2 was reduced (FIG. 4A). […] Thus, a form of ATRX was required for both PD0332991-induced loss of MDM2, and downstream of MDM2 loss to establish a senescent state.

[4] = tested on: Bethyl antibody; assay: Reactivity of ATRX C-terminal peptides with the Bethyl antibody; assay type: binding; details: KLH-coupled peptides, FIG. 11
Text: All peptides were generated by Thermo Fisher Scientific/Pierce Biotechnology and coupled to the carrier KLH. All conjugates were provided at >98% purity as determined by HPLC. Peptide sequences were confirmed by mass spec. Peptides RSK, 2490Ac and 2480Ra reacted with the Bethyl antibody (FIG. 11).

In the case of `CC(=O)c1c(C)c2cnc(Nc3ccc(N4CCNCC4)cn3)nc2n(C2CCCC2)c1=O` [PD0332991], the “number of ATRX foci in responder cells undergoing senescence” value ([1]; LS8817, PD0332991 treated vs not treated, FIG. 14) is reported as “significantly more”, the “number of cells that contained 18 or more ATRX foci” value ([1]; LS8817, in response to PD0332991 treatment, FIG. 14) is reported as “greatly increased” and the “earliest time at which the increase in ATRX foci is observed” value ([1]; responder cells, subsequent to PD0332991 treatment, FIG. 16A-C) is reported as 2 days. The “number of ATRX foci” value ([1]; senescent responder cells, PD0332991 treatment, FIG. 13B) was “increased”, the “number of ATRX foci” value ([2]; LS8107, PD0332991 followed by shMDM2 2 days later, vs untreated or PD0332991 alone, FIG. 18) was “significant increase” and the “average number of ATRX foci per cell” value ([2]; LS8107, PD0332991 treated vs not treated, FIG. 15) was “did not change”. The “number of ATRX foci” value ([2]; PD0332991-treated non-responder cells, FIG. 13B) was “no increase” and the “number of SA-β-gal positive cells” value [3] was “greatly reduced”.

With “APPMRSKNPGPSQGKSM [amino acids 2475-2492 of ATRX, no modification, coupled to the carrier KLH]” the “reactivity with the Bethyl antibody” value [4] was “reacted”.

With “APPPMRSKNP [2480Rs] (APPPM[Arg(Me2s)]SKNP) [Peptide 2480Rs, amino acids 2475-2484 of ATRX, symmetrically methylated at arginine 2480]” the “reactivity with the Bethyl antibody” value [4] was “did not react”.

In the case of “APPPMRSKNP [Peptide 2480Ra, amino acids 2475-2484 of ATRX, asymmetrically methylated at arginine 2480]”, the “reactivity with the Bethyl antibody” value [4] is reported as “reacted”.

With “PPPLQRAPPM [Peptide 2474, amino acids 2469-2479 of ATRX, no modification, coupled to KLH]” the “reactivity with the Bethyl antibody” value [4] was “did not react”.

For “SKNPGPSQG (SKNPGP[pS]QG) [Peptide 2487P, amino acids 2481-2489 of ATRX, phosphorylated at serine 2487]”, the “reactivity with the Bethyl antibody” value [4] was “did not react”.

In the case of “SKNPGPSQGKSM [Peptide 2490Ac, amino acids 2481-2492 of ATRX, acetylated at lysine 2490]”, the “reactivity with the Bethyl antibody” value [4] is reported as “reacted”.
